From US20100298141A1, “SUBSTITUTED PYRIDINE N-OXIDE HERBICIDES” (E. I. DU PONT DE NEMOURS AND COMPANY, priority 2007, published 2010)

Assays:
soybean = experiment: Test C pre-/postemergence test; format: in vivo, Glycine max; conditions: for Plant response rating, Soybean: 31 g ai/ha, scale 0 to 100 (0 no effect, 100 complete control)
Summary of the method: (§1)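 Test chemicals were formulated with surfactant in a non-phytotoxic solvent and sprayed both on freshly planted seeds (preemergence) and on 1- to 4-leaf plants of 2–18 cm (postemergence). Flooded-paddy pots received compound directly into 3 cm of standing water, maintained for the test.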

wild oat = experiment: Test C pre-/postemergence test; format: in vivo, Avena fatua; conditions: for Plant response rating, Oat, Wild: 31 g ai/ha, scale 0 to 100 (0 no effect, 100 complete control)
Summary of the method: as §1

redroot pigweed = experiment: Test A pre-/postemergence greenhouse test; format: in vivo, Amaranthus retroflexus; conditions: for Pigweed plant response rating: 0 to 100 scale; for Plant response rating, Pigweed: 0 to 100 scale where 0 is no effect and 100 is complete control
Summary of the method: (§2)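 Visual injury ratings, made relative to untreated controls roughly ten days after treatment, cover both preemergence and postemergence application. Compounds in a surfactant-containing non-phytotoxic solvent were sprayed onto the soil surface after sowing and, simultaneously, onto young plants at the one- to two-leaf stage.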

bermudagrass = experiment: Test C pre-/postemergence test; format: in vivo, Cynodon dactylon; conditions: for Plant response rating, Bermudagrass: 31 g ai/ha
Summary of the method: as §1

blackgrass = experiment: Test C pre-/postemergence test; format: in vivo, Alopecurus myosuroides; conditions: for Plant response rating, Blackgrass: 31 g ai/ha, scale 0 to 100 (0 no effect, 100 complete control)
Summary of the method: as §1

green foxtail = experiment: Test C pre-/postemergence test; format: in vivo, Setaria viridis; conditions: for Plant response rating, Foxtail, Green: 31 g ai/ha, scale 0 to 100 (0 no effect, 100 complete control)
Summary of the method: as §1

morningglory = experiment: Test A pre-/postemergence greenhouse test; format: in vivo, Ipomoea spp.; conditions: for Morningglory plant response rating: 0 to 100 scale; for Plant response rating, Morningglory: 0 to 100 scale where 0 is no effect and 100 is complete control
Summary of the method: as §2

yellow nutsedge = experiment: Test C pre-/postemergence test; format: in vivo, Cyperus esculentus; conditions: for Plant response rating, Nutsedge, Yellow: 31 g ai/ha, scale 0 to 100 (0 no effect, 100 complete control)
Summary of the method: as §1

lambsquarters = experiment: Test C pre-/postemergence test; format: in vivo, Chenopodium album; conditions: for Plant response rating, Lambsquarters: 31 g ai/ha, scale 0 to 100 (0 no effect, 100 complete control)
Summary of the method: as §1

cocklebur = experiment: Test C pre-/postemergence test; format: in vivo, Xanthium strumarium; conditions: for Plant response rating, Cocklebur: 31 g ai/ha, scale 0 to 100 (0 no effect, 100 complete control)
Summary of the method: as §1

catchweed bedstraw = experiment: Test C pre-/postemergence test; format: in vivo, Galium aparine; conditions: for Plant response rating, Galium: 31 g ai/ha, scale 0 to 100 (0 no effect, 100 complete control)
Summary of the method: as §1

duck salad = experiment: Test C flooded paddy test; format: in vivo, Heteranthera limosa; conditions: Flood
Summary of the method: (§3)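 Greenhouse pots flooded to 3 cm above soil at time of treatment received compound via the water, which stayed at that level.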

downy brome = experiment: Test C pre-/postemergence test; format: in vivo, Bromus tectorum
Summary of the method: as §1

kochia = experiment: Test C pre-/postemergence test; format: in vivo, Kochia scoparia; conditions: for Plant response rating, Kochia: 31 g ai/ha, scale 0 to 100 (0 no effect, 100 complete control)
Summary of the method: as §1

woolly cupgrass = experiment: Test C pre-/postemergence test; format: in vivo, Eriochloa villosa; conditions: for Plant response rating, Cupgrass, Woolly: 31 g ai/ha, scale 0 to 100 (0 no effect, 100 complete control)
Summary of the method: as §1

rice = experiment: Test C flooded paddy test; format: in vivo, Oryza sativa; conditions: Flood
Summary of the method: as §3

[1] = 62 g ai/ha, Preemergence, scale 0 to 100
[2] = Postemergence, 125 g ai/ha, 0 is no effect, 100 is complete control
[3] = Postemergence, 500 g ai/ha, 0 is no effect, 100 is complete control
[4] = Preemergence, 125 g ai/ha, 0 no effect, 100 complete control
[5] = 62 g ai/ha, Preemergence, scale 0 to 100 (0 no effect, 100 complete control)
[6] = Preemergence, scale 0 to 100 (0 no effect, 100 complete control)
[7] = preemergence, 125 g ai/ha, scale 0 (no effect) to 100 (complete control)
[8] = 31 g ai/ha, scale 0 to 100 (0 no effect, 100 complete control)
[9] = 62 g ai/ha, scale 0 to 100, 0 no effect, 100 complete control, 13 to 15 days
[10] = 125 g ai/ha, scale 0 to 100, 0 no effect, 100 complete control, 13 to 15 days
[11] = 250 g ai/ha, scale 0 to 100 (0 no effect, 100 complete control)
[12] = preemergence, 250 g ai/ha, scale 0 (no effect) to 100 (complete control)
[13] = 125 g ai/ha, preemergence, scale 0 (no effect) to 100 (complete control)
[14] = 62 g ai/ha, scale 0 to 100 (0 no effect, 100 complete control)
[15] = 250 g ai/ha, scale 0 to 100, 0 no effect, 100 complete control, 13 to 15 days

In the case of `Cc1cc[n+]([O-])c(S(=O)(=O)Cc2c(C(F)(F)F)nn(C)c2Cl)c1` [Compound 19], the “Soybean plant response rating” value (soybean; [1]) is reported as 0, the “Plant response rating, Soybean” value (soybean; Preemergence) is reported as 0 and the “Oat, Wild plant response rating” value (wild oat; [1]) is reported as 0. The “Plant response rating, Oat, Wild” value (wild oat; Preemergence) was 0, the “Pigweed plant response rating” value (redroot pigweed; [2]) was 10 and the “Pigweed plant response rating” value (redroot pigweed; [3]) was 30. For the same molecule, the “Pigweed plant response rating” value (redroot pigweed; [4]) was 100, the “Plant response rating, Pigweed” value (redroot pigweed; Preemergence, 500 g ai/ha) was 100 and the “Bermudagrass plant response rating” value (bermudagrass; [5]) was 100. For the same molecule, the “Plant response rating, Bermudagrass” value (bermudagrass; [6]) was 85, the “Plant response rating (0 to 100), Bermudagrass” value (bermudagrass; Preemergence, 250 g ai/ha) was 100 and the “Bermudagrass plant response rating” value (bermudagrass; [7]) was 100. For the same molecule, the “Blackgrass plant response rating” value (blackgrass; [1]) was 0, the “Plant response rating, Blackgrass” value (blackgrass; Preemergence) was 0 and the “Plant response rating (0 to 100), Blackgrass” value (blackgrass; Preemergence, 250 g ai/ha) was 100. For the same molecule, the “Blackgrass plant response rating” value (blackgrass; [7]) was 0, the “Foxtail, Green plant response rating” value (green foxtail; [1]) was 100 and the “Plant response rating, Foxtail, Green” value (green foxtail; Preemergence) was 98. The “Plant response rating (0 to 100), Foxtail, Green” value (green foxtail; Preemergence, 250 g ai/ha) was 100, the “Morningglory plant response rating” value (morningglory; [2]) was 20 and the “Morningglory plant response rating” value (morningglory; [3]) was 30. The “Morningglory plant response rating” value (morningglory; [4]) was 60, the “Plant response rating, Morningglory” value (morningglory; Preemergence, 500 g ai/ha) was 80 and the “Nutsedge, Yellow plant response rating” value (yellow nutsedge; [1]) was 70. For the same molecule, the “Plant response rating, Nutsedge, Yellow” value (yellow nutsedge; Preemergence) was 40, the “Lambsquarters plant response rating” value (lambsquarters; [1]) was 0 and the “Plant response rating, Lambsquarters” value (lambsquarters; Preemergence) was 0. For the same molecule, the “Cocklebur plant response rating” value (cocklebur; [1]) was 0, the “Plant response rating, Cocklebur” value (cocklebur; Preemergence) was 0 and the “Plant response rating (0 to 100), Cocklebur” value (cocklebur; Preemergence, 250 g ai/ha) was 30. For the same molecule, the “Cocklebur plant response rating” value (cocklebur; [7]) was 0, the “Galium plant response rating” value (catchweed bedstraw; [1]) was 100 and the “Plant response rating, Galium” value (catchweed bedstraw; Preemergence) was 85. The “Plant response rating (0 to 100), Galium” value (catchweed bedstraw; Preemergence, 250 g ai/ha) was 100, the “Plant response rating, Ducksalad” value (duck salad; [8]) was 0 and the “Plant response rating, Ducksalad” value (duck salad; [9]) was 0. The “Plant response rating, Ducksalad” value (duck salad; [10]) was 0, the “Plant response rating, Ducksalad” value (duck salad; [11]) was 75 and the “Bromegrass, Downy plant response rating” value (downy brome; [1]) was 0. The “Plant response rating, Bromegrass, Downy” value (downy brome; Preemergence, 31 g ai/ha, scale 0 to 100 (0 no effect, 100 complete control)) was 0, the “Plant response rating (0 to 100), Bromegrass, Downy” value (downy brome; Preemergence, 250 g ai/ha) was 0 and the “Bromegrass, Downy plant response rating” value (downy brome; [7]) was 0. The “Kochia plant response rating” value (kochia; [1]) was 100, the “Plant response rating, Kochia” value (kochia; Preemergence) was 0 and the “Cupgrass, Woolly plant response rating” value (woolly cupgrass; [1]) was 100. The “Plant response rating, Cupgrass, Woolly” value (woolly cupgrass; Preemergence) was 0, the “Plant response rating (0 to 100), Cupgrass, Woolly” value (woolly cupgrass; Preemergence, 250 g ai/ha) was 100 and the “Plant response rating, Rice” value (rice; [8]) was 0. The “Plant response rating, Rice” value (rice; [9]) was 0, the “Plant response rating, Rice” value (rice; [10]) was 30 and the “Plant response rating, Rice” value (rice; [11]) was 70.
For `Cn1nc(C(F)(F)F)c(C[S+]([O-])c2ccc(Cl)c[n+]2[O-])c1OCC(F)F` (stereo not shown) [Compound 85], the “Soybean plant response rating” value (soybean; [1]) was 100, the “Plant response rating, Soybean” value (soybean; Preemergence) was 100 and the “Soybean plant response rating” value (soybean; [12]) was 100. The “Oat, Wild plant response rating” value (wild oat; [1]) was 80, the “Oat, Wild plant response rating” value (wild oat; [13]) was 85 and the “Plant response rating, Oat, Wild” value (wild oat; Preemergence) was 80. For the same molecule, the “Oat, Wild plant response rating” value (wild oat; [12]) was 100, the “Plant response rating, Pigweed” value (redroot pigweed; Postemergence, 125 g ai/ha) was 60 and the “Pigweed plant response rating” value (redroot pigweed; [3]) was 90. The “Pigweed plant response rating” value (redroot pigweed; [4]) was 70, the “Plant response rating, Pigweed” value (redroot pigweed; Preemergence, 500 g ai/ha) was 90 and the “Bermudagrass plant response rating” value (bermudagrass; [5]) was 100. The “Bermudagrass plant response rating” value (bermudagrass; [13]) was 100, the “Plant response rating, Bermudagrass” value (bermudagrass; [6]) was 90 and the “Bermudagrass plant response rating” value (bermudagrass; [12]) was 100. The “Blackgrass plant response rating” value (blackgrass; [1]) was 100, the “Blackgrass plant response rating” value (blackgrass; [13]) was 100 and the “Plant response rating, Blackgrass” value (blackgrass; Preemergence) was 100. For the same molecule, the “Blackgrass plant response rating” value (blackgrass; [12]) was 100, the “Foxtail, Green plant response rating” value (green foxtail; [1]) was 100 and the “Foxtail, Green plant response rating” value (green foxtail; [13]) was 100. For the same molecule, the “Plant response rating, Foxtail, Green” value (green foxtail; Preemergence) was 100, the “Foxtail, Green plant response rating” value (green foxtail; [12]) was 100 and the “Plant response rating, Morningglory” value (morningglory; Postemergence, 125 g ai/ha) was 70. The “Morningglory plant response rating” value (morningglory; [3]) was 90, the “Morningglory plant response rating” value (morningglory; [4]) was 60 and the “Plant response rating, Morningglory” value (morningglory; Preemergence, 500 g ai/ha) was 100. For the same molecule, the “Nutsedge, Yellow plant response rating” value (yellow nutsedge; [1]) was 40, the “Nutsedge, Yellow plant response rating” value (yellow nutsedge; [13]) was 40 and the “Plant response rating, Nutsedge, Yellow” value (yellow nutsedge; Preemergence) was 40. For the same molecule, the “Nutsedge, Yellow plant response rating” value (yellow nutsedge; [12]) was 95, the “Lambsquarters plant response rating” value (lambsquarters; [1]) was 100 and the “Lambsquarters plant response rating” value (lambsquarters; [13]) was 100. For the same molecule, the “Plant response rating, Lambsquarters” value (lambsquarters; Preemergence) was 100, the “Lambsquarters plant response rating” value (lambsquarters; [12]) was 100 and the “Cocklebur plant response rating” value (cocklebur; [1]) was 0. The “Cocklebur plant response rating” value (cocklebur; [13]) was 0, the “Plant response rating, Cocklebur” value (cocklebur; Preemergence) was 0 and the “Cocklebur plant response rating” value (cocklebur; [12]) was 0. For the same molecule, the “Galium plant response rating” value (catchweed bedstraw; [1]) was 100, the “Galium plant response rating” value (catchweed bedstraw; [13]) was 100 and the “Plant response rating, Galium” value (catchweed bedstraw; Preemergence) was 98. The “Galium plant response rating” value (catchweed bedstraw; [12]) was 100, the “Plant response rating, Ducksalad” value (duck salad; [8]) was 35 and the “Plant response rating, Ducksalad” value (duck salad; [14]) was 45. The “Plant response rating, Ducksalad” value (duck salad; [10]) was 75, the “Plant response rating, Ducksalad” value (duck salad; [15]) was 80 and the “Bromegrass, Downy plant response rating” value (downy brome; [13]) was 70. The “Bromegrass, Downy plant response rating” value (downy brome; [12]) was 100, the “Kochia plant response rating” value (kochia; [1]) was 100 and the “Kochia plant response rating” value (kochia; [13]) was 100. The “Plant response rating, Kochia” value (kochia; Preemergence) was 100, the “Kochia plant response rating” value (kochia; [12]) was 100 and the “Cupgrass, Woolly plant response rating” value (woolly cupgrass; [1]) was 95. For the same molecule, the “Cupgrass, Woolly plant response rating” value (woolly cupgrass; [13]) was 95, the “Plant response rating, Cupgrass, Woolly” value (woolly cupgrass; Preemergence) was 80 and the “Cupgrass, Woolly plant response rating” value (woolly cupgrass; [12]) was 100. For the same molecule, the “Plant response rating, Rice” value (rice; [8]) was 0, the “Plant response rating, Rice” value (rice; [14]) was 0 and the “Plant response rating, Rice” value (rice; [10]) was 30. For the same molecule, the “Plant response rating, Rice” value (rice; [15]) was 50.
